Activity calls are given as the source filed them.
Legend:
[1] = target: FAD-linked sulfhydryl oxidase ALR (Homo sapiens, UniProt P55789); test: inhibitors of human ALR sulfhydryl oxidase, dose response, biochemical, H2O2 detection, luminescence, cherry-pick (AID 493248)
[2] = microbe, parasite or virus in culture; assay type: functional; settings: Mycobacterium tuberculosis
H4 = test: Luminescence Cell-Based Dose Response HTS to Identify Activators of 5'UTR Stem-Loop Driven Prion Protein mRNA Translation in H4 Neuroglioblastoma Cells. [Related pubchem assays: 1829 (Project Summary), 1814 (Primary HTS)]; assay type: functional; settings: Homo sapiens
Protein skinhead-1 = target: T1, Protein skinhead-1 (Caenorhabditis elegans, UniProt P34707); assay type: functional
T1 sequence (P34707 whole entry): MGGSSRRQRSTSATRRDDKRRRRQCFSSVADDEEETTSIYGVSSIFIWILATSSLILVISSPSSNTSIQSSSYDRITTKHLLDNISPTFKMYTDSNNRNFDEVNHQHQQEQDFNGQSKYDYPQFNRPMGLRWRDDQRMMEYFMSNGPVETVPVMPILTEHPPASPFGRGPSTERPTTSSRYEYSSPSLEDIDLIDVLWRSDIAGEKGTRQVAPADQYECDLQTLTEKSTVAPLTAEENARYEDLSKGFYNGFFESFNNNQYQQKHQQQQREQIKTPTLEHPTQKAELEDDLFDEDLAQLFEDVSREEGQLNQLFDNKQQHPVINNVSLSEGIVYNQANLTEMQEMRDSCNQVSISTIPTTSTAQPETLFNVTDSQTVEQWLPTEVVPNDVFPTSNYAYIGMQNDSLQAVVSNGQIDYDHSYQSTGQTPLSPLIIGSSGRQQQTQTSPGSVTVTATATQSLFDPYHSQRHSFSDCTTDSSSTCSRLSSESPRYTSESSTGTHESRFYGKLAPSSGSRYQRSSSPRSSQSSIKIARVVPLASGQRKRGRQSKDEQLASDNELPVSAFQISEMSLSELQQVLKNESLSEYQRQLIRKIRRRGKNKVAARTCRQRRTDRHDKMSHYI

[3] = C. albicans growth with fluconazole, confirmation, fluorescence, retest (AID 2467); assay type: functional, cell-based
[4] = NIH-3T3 fibroblast cytotoxicity, dose response, cytotoxicity control, cell-based, fluorescence, Alamar Blue, secondary assay (AID 2327); assay type: functional;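 note: NIH-3T3 mouse fibroblasts cultured with fluconazole at 8 µg/mL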
[5] = cytotoxicity toward NIH3T3 fibroblasts, dose response, counter-screen, cell-based, ATP luminescence, mouse fibroblasts (AID 2010); assay type: functional;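 note: cells exposed to compound for about 90 hours before reading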
INS1 = test: beta cell apoptosis inhibitors, cytokine rescue, dose response, luminescence, retest (AID 449756); assay type: functional, cell-based; settings: Rattus norvegicus;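 note: cell death triggered by IL-1 beta plus TNF-alpha plus IFN-gamma mixture; protective hits raise ATP signal compared with cytokine alone wells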
[6] = inhibitors of firefly luciferase expression or activity, dose response, H4 neuroglioma cells, luminescence (AID 1990); assay type: functional, cell-based
Streptococcus = test: Group A Streptococcus viability loss, dose response, counter-screen for streptokinase expression inhibitor project, luminescence, BacTiterGlo (AID 1915); assay type: functional, organism-based;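 note: potency for reduction of bacterial viability or growth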
[7] = inhibitors of SNCA 5'UTR-driven reporter translation, confirmation, H4 neuroglioma cells, luminescence (AID 1988); assay type: functional, cell-based
[8] = inhibitors of intracellular T. cruzi replication, confirmation, NIH3T3 host cells, beta-gal luminescence (AID 2044); assay type: functional, cell-based;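 note: intracellular parasites grown in NIH/3T3 mouse fibroblasts as host cells; luminescent beta-galactosidase reporter signal from transgenic T. cruzi replicating inside host cells; inhibitors lower the luminescence signal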
[9] = test system: Streptococcus sp. 'group A'; test: growth inhibition of control SK(-) GAS strain, dose response, counter-screen for streptokinase expression inhibitor project, luminescence, kanamycin, BacTiterGlo, confirmation (AID 1900); assay type: functional, organism-based
[10] = Luminescence Cell-Based Dose Response HTS to Identify Inhibitors of 5'UTR Stem-Loop Driven Prion Protein mRNA Translation in H4 Neuroglioblastoma Cells. [Related pubchem assays: 1827 (Project Summary), 1813 (Primary HTS)]; assay type: functional
[11] = HEp-2 cell cytotoxicity, dose response, cytotoxicity control for RSV inhibitor project, HTS (AID 2410); assay type: functional; settings: human respiratory syncytial virus
Cytochrome P450 1A2 = target: T2, Cytochrome P450 1A2 (Homo sapiens, UniProt P05177);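 note: PubChem cytochrome P450 panel assay, CYP1A2 panel member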
T2 sequence (P05177 whole entry): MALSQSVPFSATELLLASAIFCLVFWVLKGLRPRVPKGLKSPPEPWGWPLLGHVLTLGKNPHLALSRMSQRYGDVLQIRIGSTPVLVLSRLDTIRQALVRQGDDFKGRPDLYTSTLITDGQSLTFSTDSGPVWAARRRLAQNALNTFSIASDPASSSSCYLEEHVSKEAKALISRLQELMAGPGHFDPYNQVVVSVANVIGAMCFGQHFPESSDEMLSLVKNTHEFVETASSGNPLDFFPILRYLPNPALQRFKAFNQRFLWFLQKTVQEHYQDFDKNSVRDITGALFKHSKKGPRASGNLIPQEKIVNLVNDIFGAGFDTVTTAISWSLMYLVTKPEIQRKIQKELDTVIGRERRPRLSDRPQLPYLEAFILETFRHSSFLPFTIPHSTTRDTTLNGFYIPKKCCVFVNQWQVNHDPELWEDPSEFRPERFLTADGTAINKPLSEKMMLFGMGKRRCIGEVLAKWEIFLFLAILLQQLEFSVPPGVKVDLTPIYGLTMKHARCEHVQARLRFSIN

Cytochrome P450 2C9 = Cytochrome P450 2C9 (Homo sapiens, UniProt P11712)
[12] = Luminescence Cell-Based Dose Retest to Confirm Inhibitors of Cancer Stem Cells. [Related pubchem assays (depositor defined):AID2717, AID2721]; assay type: functional; settings: Homo sapiens

Sequence of FAD-linked sulfhydryl oxidase ALR (P55789 whole entry): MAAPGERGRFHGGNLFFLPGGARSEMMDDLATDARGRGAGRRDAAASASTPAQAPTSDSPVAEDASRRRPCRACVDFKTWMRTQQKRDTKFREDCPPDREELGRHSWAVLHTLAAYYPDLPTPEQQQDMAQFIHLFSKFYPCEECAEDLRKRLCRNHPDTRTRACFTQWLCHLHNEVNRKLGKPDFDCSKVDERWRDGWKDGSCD
Sequence of Cytochrome P450 2C9 (P11712 whole entry): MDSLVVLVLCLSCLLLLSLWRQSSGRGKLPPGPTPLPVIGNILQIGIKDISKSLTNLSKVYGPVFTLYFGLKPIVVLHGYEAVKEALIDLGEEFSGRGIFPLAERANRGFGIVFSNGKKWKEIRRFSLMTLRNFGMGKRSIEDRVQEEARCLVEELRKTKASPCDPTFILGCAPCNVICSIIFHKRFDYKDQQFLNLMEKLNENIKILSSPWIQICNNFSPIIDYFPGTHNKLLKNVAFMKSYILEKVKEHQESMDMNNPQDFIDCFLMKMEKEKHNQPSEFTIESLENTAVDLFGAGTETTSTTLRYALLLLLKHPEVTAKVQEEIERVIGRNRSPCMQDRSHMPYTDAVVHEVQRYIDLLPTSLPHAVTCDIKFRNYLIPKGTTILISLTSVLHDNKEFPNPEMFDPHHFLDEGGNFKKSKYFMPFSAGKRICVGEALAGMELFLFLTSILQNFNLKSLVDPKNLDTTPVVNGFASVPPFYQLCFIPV

## CCn1cc(-c2ccccc2)c(C(=O)O)c1-c1ccc(OC)cc1
[1]
  AC50: 5.6 µM (active)

## CNc1nc(N)c(C(=O)C23CC4CC(CC(C4)C2)C3)s1
[1]
  AC50: 0.437 µM (active)

## O=C(NCC(=O)N1CCN(c2ccccc2O)CC1)c1cccs1
[1]
  AC50: 4.14 µM (active)

## CCCOc1cccc(-c2nn(-c3ccccc3)cc2/C=C(\C#N)C(=O)NCCCn2ccnc2)c1
[2]
  CC50: > 40 µM (active)

## Fc1ccc2nc(Nc3nc4c(s3)CCCC4)sc2c1
H4
  EC50: 0.986 µM (active)

## CC(=O)N1CCN(C(=S)c2ccc(N(C)C)cc2)CC1
[1]
  AC50: 1.13 µM (active)

## Cc1nc(C(F)(F)F)c(C(=O)O)cc1-c1nc(-c2ccccc2)cs1
[1]
  AC50: 11.4 µM (active)

## Clc1ccc(-c2nc(-c3cnccn3)no2)cc1
Protein skinhead-1
  IC50: 74.1 µM (inactive)

## O=C(O)c1ccc(-c2nc(-c3ccc(Cl)cc3)cs2)cc1
[3]
  EC50: 4.58 µM (active)
[4]
  EC50: 112 µM (active)

## C=CCNC(=O)c1onc(CCl)c1C(=O)OC
[2]
  CC50: > 40 µM (active)

## O=C1N=C(N/N=C/c2cccnc2)SC1Cc1ccc(SC(F)F)cc1 (stereo not given)
[5]
  EC50: 3.44 µM (active)
INS1
  AC50: 2.56 µM (active)
[6]
  EC50: 11.9 µM (active)
Streptococcus
  EC50: 8.36 µM (active)
[3]
  EC50: 1.87 µM (active)
[7]
  EC50: 12.3 µM (active)
[8]
  EC50: 0.969 µM (active)
[9]
  EC50: 3.31 µM (active)
[4]
  EC50: > 150 µM (inactive)
[10]
  EC50: 12.2 µM (active)

## Cn1c(-c2ccc(F)cc2)cnc1NCc1cc2c(cc1[N+](=O)[O-])OCO2
[1]
  AC50: 7.43 µM (active)

## COc1ccc(NC(=O)CN2CCN(Cc3ccc4c(c3)OCO4)CC2)cc1OC
Protein skinhead-1
  IC50: > 100 µM (inactive)

## COc1ccc(-c2cn(-c3ccc(C)cc3)c(=O)n2CC(=O)Nc2ccc(OC)cc2OC)cc1
Protein skinhead-1
  IC50: > 100 µM (inactive)

## Cn1c(/C=N/Nc2nc3ccccc3[nH]2)nc2ccccc21
[2]
  CC50: > 40 µM (active)
[3]
  EC50: > 38 µM (not active)
[4]
  EC50: 35.5 µM (active)

## Cc1nn2c(-c3cccnc3)ccnc2c1-c1ccccc1
[11]
  CC50: 41.2 µM (active)

## O=C(O)c1ccc(CSc2nc3ccccc3o2)cc1
Cytochrome P450 1A2
  AC50: 0.0501 µM (inconclusive)
[1]
  AC50: 51.7 µM (active)
Cytochrome P450 2C9
  AC50: 39.8 µM (inconclusive)

## O=[N+]([O-])C(/C=C(\Cl)[N+](=O)[O-])=C(N1CCCCC1)N1CCCCC1
H4
  EC50: > 120 µM (not active)
[8]
  EC50: 0.956 µM (active)

## O=C(/C=C/c1ccc2c(c1)OCCCO2)c1ccc2ccccc2c1O
[12]
  AC50: 5.21 µM (active)
[11]
  CC50: 30.7 µM (active)

From ChEMBL document CHEMBL1201862, “PubChem BioAssay data set” (2004)
